Literature values as cited in patent US20100129295A1, “Compositions for preventing and/or treating gingivitis” (priority 2008, published 2010).
Values belong to the compound of their own block, whether it stands above or below them.

What was measured:
TNF-α = TNF-α (Homo sapiens, UniProt P01375)
[1] = females taking supplements; 27 females with gingivitis compared with women without
[2] = system: TNF-α induced cellular responses

Chain of TNF-α (P01375 whole entry, species assumed): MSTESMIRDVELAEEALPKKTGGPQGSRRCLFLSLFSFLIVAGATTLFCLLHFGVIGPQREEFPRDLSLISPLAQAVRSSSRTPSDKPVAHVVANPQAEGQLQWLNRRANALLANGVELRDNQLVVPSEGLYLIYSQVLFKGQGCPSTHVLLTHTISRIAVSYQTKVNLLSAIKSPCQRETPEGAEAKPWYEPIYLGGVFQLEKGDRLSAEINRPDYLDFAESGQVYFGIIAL

SMILES: C/C(O)=C(\C#N)C(=O)Nc1ccc(C(F)(F)F)cc1 [A 771726, teriflunomide]
TNF-α and IL-1 from Kupffer cells (Kupffer cells): inhibits

inhibition of TNF-α (TNF-α): inhibition
SMILES: Cc1cc(C(=O)Nc2ccc(Cl)cc2)no1 [UTL-5d]

SMILES: [Ca+2] [calcium]
risk of gingivitis [1]: reduced risk

SMILES: Cc1oncc1C(=O)Nc1ccc(C(F)(F)F)cc1 [leflunomide]
TNF-α induced cellular responses [2]: suppresses

SMILES: Cc1cc2nc3c(=O)[nH]c(=O)nc-3n(C[C@H](O)[C@H](O)[C@H](O)CO)c2cc1C [vitamin B2]
risk of gingivitis [1]: reduced risk
